Values of other authors, collected in patent publication US20030232019A1, “Inhalable formulations for sustained release” (Advanced Inhalation Research, Inc., priority 2002, published 2003).

Details: healthy volunteers after inhalation

## insulin
  time to half-maximal action (glucose infusion rate): about 30 minutes
